Values quoted from earlier work as cited in paper PMC12785803, “Novel ACE-Inhibitory Peptides from Royal Jelly Proteins: Comprehensive Screening, Mechanistic Insights, and Endothelial Protection” (Foods, 2025).
Like-named read-outs stand apart in the source and are kept apart here.

Legend:
Conditions in all cases: cited from earlier work
[1] = system: ACE; parameters: method as in 4 sources, ref Han et al. [33] ||| ref 45 = [45]; PMID 35323475; doi:10.3390/md20030176; 45. Zheng S.-L. Luo Q.-B. Suo S.-K. Zhao Y.-Q. Chi C.-F. Wang B. Preparation, Identification, Molecular Docking Study and Protective Function on HUVECs of Novel ACE Inhibitory Peptides from Protein Hy ||| ref 36 = [36]; PMID 37888451; doi:10.3390/md21100516; 36. Hu Y.-D. Xi Q.-H. Kong J. Zhao Y.-Q. Chi C.-F. Wang B. Angiotensin-I-Converting Enzyme (ACE)-Inhibitory Peptides from the Collagens of Monkfish ( Lophius litulon ) Swim Bladders: Isolation, Charac ||| ref 46 = [46]; PMID 37944395; doi:10.1016/j.foodchem.2023.137921; 46. Du T. Xu Y. Xu X. Xiong S. Zhang L. Dong B. Huang J. Huang T. Xiao M. Xiong T. ACE Inhibitory Peptides from Enzymatic Hydrolysate of Fermented Black Sesame Seed: Random Forest-Based Optimization
From the text: These comparisons support the interaction profile observed for PY ...

[2] = system: ACE
From the text: As compared to traditional experiment-based screening approaches for ACE-inhibitory peptides, which are time-consuming and labor-intensive, an in silico strategy that integrates peptidomic analysis with virtual screening has emerged as a more efficient and cost-effective approach for identifying ACE-inhibitory peptides from food resources. For example, in a previous study by our group, a novel ACE-inhibitory peptide, MMDF, was identified from the simulated digest of oyster proteins using a virtual screening pipeline that incorporated bioactivity prediction, physicochemical proper ... || In recent years, the hydrolysates of royal jelly proteins (RJPs) have gained increasing attention due to their broad spectrum of biological activities, including antioxidant, antibacterial, anti-aging, and antihypertensive properties, which are largely attributed to their favorable amino acid composition and sequence characteristics.

[3] = system: ACE; parameters: method as in 3 sources, ref 40 = [40]; PMID 38384691; doi:10.1016/j.fochx.2024.101211; 40. Wei G. Wang T. Li Y. He R. Huang A. Wang X. Identification, Structural Characterization, and Molecular Dynamic Simulation of ACE Inhibitory Peptides in Whey Hydrolysates from Chinese Rushan Cheese ||| ref 41 = [41]; PMID 39250996; doi:10.1016/j.ijbiomac.2024.135469; 41. Wang S. Zhang L. Wang H. Liu J. Hu Y. Tu Z. Angiotensin Converting Enzyme (ACE) Inhibitory Peptide from the Tuna ( Thunnus thynnus ) Muscle: Screening, Interaction Mechanism and Stability Int. J. ||| ref 42 = [42]; PMID 37793525; doi:10.1016/j.ijbiomac.2023.127196; 42. Wang S. Zhang L. Wang H. Hu Z. Xie X. Chen H. Tu Z. Identification of Novel Angiotensin Converting Enzyme (ACE) Inhibitory Peptides from Pacific Saury: In Vivo Antihypertensive Effect and Transpor

In the case of FDGPY [identified from Lophius litulon], the “Docking interactions with ACE” value ([1]; monkfish swim bladder) is listed as “interacted with Ala354 and Tyr523 via hydrogen bonding and hydrophobic interactions” and the IC50 ([2]; from Lophius litulon) is listed as 1.57 mM.
For FPPDVA, the IC50 ([2]; from tuna dark muscle hydrolysates) is given as 0.0871 ± 0.00102 mM.
In the case of “ITAPHW [from fermented black sesame seed]”, the “Docking interactions with ACE” value ([1]; fermented black sesame seed) is given as “strong ACE inhibition due to direct Zn^2+ coordination”.
For “KWEKPF [from Chinese Rushan cheese by-products]”, the ACE inhibition mode ([3]; from Chinese Rushan cheese by-products) is listed as “mixed-type ACE inhibition”.
In the case of LEPWR [from Pacific saury], the ACE inhibition mode ([3]; from Pacific saury) is listed as “mixed-type ACE inhibition”.
In the case of “LTGCP [from tuna (Thunnus thynnus) muscle]”, the ACE inhibition mode ([3]; from tuna (Thunnus thynnus) muscle) is given as “mixed-type ACE inhibition”.
In the case of SEGPK [identified from Lophius litulon], the “Docking interactions with ACE” value ([1]; monkfish swim bladder) is given as “interacted with Ala354 and Tyr523 via hydrogen bonding and hydrophobic interactions” and the IC50 ([2]; from Lophius litulon) is given as 1.21 mM.
For “SLPNYHPSPR [from fermented black sesame seed]”, the “Docking interactions with ACE” value ([1]; fermented black sesame seed) is given as “strong ACE inhibition due to direct Zn^2+ coordination”.
In the case of SPGPW [identified from Lophius litulon], the “Docking interactions with ACE” value ([1]; monkfish swim bladder) is listed as “formed a hydrogen bond with the catalytic residue His387” and the IC50 ([2]; from Lophius litulon) is listed as 1.31 mM.
In the case of VDRYF [from skipjack tuna muscle], the “Docking interactions with ACE” value ([1]; skipjack tuna muscle) is listed as “formed hydrogen bonds with Ala354 and Tyr523 within S1 pocket, respectively”.
